According to PubChem BioAssay AID1963968 (Molecular Pharmacology Branch, DTP, NCI, 2024):
pIC50: −log10 of the molar value.

System: 945468-187-T-J3-PDC spheroids with HUVEC/MSC, viability
Test: Anticancer human tumor 945468-187-T-J3-PDC patient-derived rectal carcinoma cell line growth inhibition [PI3K]
Details: for pIC50: curve of first compound; for viability, T/C: stronger effect = lower value
Description: Combinatorial screen of targeted agents with the PI3K inhibitors inavolisib, alpelisib, duvelisib, and copanlisib in multi-cell type tumor spheroids
A high-throughput screen of multi-cell type tumor spheroids was designed to identify active combinations of targeted small molecules and PI3K pathway inhibitors. Complex spheroids include a stromal component modeled by human endothelial cells (HUVEC) and fibroblasts modeled by human mesenchymal stem cells (MSCs). The concentration ranges selected for each drug and investigational agent were based upon clinically achievable concentrations if the clinical Cmax of the agent was known.
Compounds. The drugs and investigational agents: inavolisib (NSC800729), alpelisib (NSC765974), duvelisib (NSC772469), copanlisib (NSC816437), ipatasertib (NSC767898), afuresertib (NSC778305), talazoparib (NSC767125), sapanisertib (NSC764658), selumetinib (NSC741078), tovorafenib (DAY101, NSC766906), vemurafenib (NSC761431), ravoxertinib (NSC781343), sotorasib (NSC818433), MRTX1133 (NSC 836407), abemaciclib (NSC 768073), palbociclib (NSC758247), venetoclax (NSC 766270), SY5609 (NSC837396), enzalutamide (NSC755605), and darolutamide (NSC825331), were obtained from the National Cancer Institute (NCI) Developmental Therapeutics Program Chemical Repository. The FDA-approved anticancer drug set is available from the NCI Developmental Therapeutics Program. […] The stock solutions were prepared in dimethyl sulfoxide (DMSO, Sigma-Aldrich, St. Louis, MO, cat. D2650) at 800-fold the tested concentration and stored at -70 degrees C prior to their use. All drugs and investigational agents were tested over a range starting from a high concentration at or near the clinical Cmax and decreasing in half-log increments. If the clinical Cmax for an agent had not been determined, the highest concentration tested was 10 microM.
Cell Culture. All cells were maintained in an incubator at 37 degrees C and 5% CO2 with 95% humidity. The PDC lines were cultured according to standard operating procedures established by the NCI PDMR (https://pdmr.cancer.gov/sops/default.htm). All PDCs were thawed and cultured in Matrigel-coated flasks prepared with a working solution of 1X Ham's F-12 nutrient mix, without supplementation (Invitrogen, Waltham, MA, cat. 11765054), 100 U/mL penicillin-streptomycin (Invitrogen, cat. 15140122), and 2.5% Matrigel (Corning Inc., Corning, NY, cat. 354248) for the first three passages. The 354836-022-R-J1-PDC, 475296-252-R-J1-PDC, and 997726-040-R-J2-PDC lines were cultured in 6A media, which includes advanced DMEM/F-12 (Thermo Fisher Scientific, cat. 12634028), 10 mM HEPES (Thermo Fisher Scientific, cat. 15630080), 1X GlutaMAX supplement (Thermo Fisher Scientific, cat. 35050061), 0.1 mg/mL primocin (InvivoGen, San Diego, CA, cat. ant-pm-2), 10% defined fetal bovine serum, heat inactivated (HyClone Laboratories Inc., Logan, UT, cat. SH30070.03HI), 50% L-WRN conditioned media (ATCC, cat. CRL-3276), 1.25 mM N-Acetyl-L-cysteine (Sigma-Aldrich, cat. A9165), 10 mM nicotinamide (Sigma-Aldrich, cat. N0636), 1X B-27 supplement (Thermo Fisher Scientific, cat. 17504044), 1X N-2 supplement (Thermo Fisher Scientific, cat. 17502048), and 10 microM Y-27632 dihydrochloride (Tocris Bioscience, Bristol, United Kingdom, cat. 1254). The 624824-186-R-J2-PDC line was cultured in 6C/Colon 1B media, which includes all 6A media components plus 50 ng/mL human EGF recombinant protein (Thermo Fisher Scientific, cat. PHG0311). […]

[1] = second compound 0.00316 µM, first compound 0.0316 µM
[2] = second compound 0.00316 µM, first compound 0.1 µM
[3] = second compound 0.00316 µM, first compound 0.316 µM
[4] = second compound 0.00316 µM, first compound 1 µM
[5] = second compound 0.01 µM, first compound 0.0316 µM
[6] = second compound 0.01 µM, first compound 0.1 µM
[7] = second compound 0.01 µM, first compound 0.316 µM
[8] = second compound 0.01 µM, first compound 1 µM
[9] = second compound 0.0316 µM, first compound 0.0316 µM
[10] = second compound 0.0316 µM, first compound 0.1 µM
[11] = second compound 0.0316 µM, first compound 0.316 µM
[12] = second compound 0.0316 µM, first compound 1 µM
[13] = second compound 0.1 µM, first compound 0.0316 µM
[14] = second compound 0.1 µM, first compound 0.1 µM
[15] = second compound 0.1 µM, first compound 0.316 µM
[16] = second compound 0.1 µM, first compound 1 µM
[17] = second compound 0.316 µM, first compound 0.0316 µM
[18] = second compound 0.316 µM, first compound 0.1 µM
[19] = second compound 0.316 µM, first compound 0.316 µM
[20] = second compound 0.316 µM, first compound 1 µM
[21] = second compound 1 µM, first compound 0.0316 µM
[22] = second compound 1 µM, first compound 0.1 µM
[23] = second compound 1 µM, first compound 0.316 µM
[24] = second compound 1 µM, first compound 1 µM
[25] = second compound 0.00316 µM, first compound 3.16 µM
[26] = second compound 0.00316 µM, first compound 10 µM
[27] = second compound 0.01 µM, first compound 3.16 µM
[28] = second compound 0.01 µM, first compound 10 µM
[29] = second compound 0.0316 µM, first compound 3.16 µM
[30] = second compound 0.0316 µM, first compound 10 µM
[31] = second compound 0.1 µM, first compound 3.16 µM
[32] = second compound 0.1 µM, first compound 10 µM
[33] = second compound 0.316 µM, first compound 3.16 µM
[34] = second compound 0.316 µM, first compound 10 µM
[35] = second compound 1 µM, first compound 3.16 µM
[36] = second compound 1 µM, first compound 10 µM
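Note: spheroids exposed to agents for 7 days before viability read.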
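Throughout, for viability, T/C: 100% = DMSO vehicle control viability.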

CCN1CCN(Cc2ccc(Nc3ncc(F)c(-c4cc(F)c5nc(C)n(C(C)C)c5c4)n3)nc2)CC1 + CC(Nc1ccc2c(c1)OCCn1cc(N3C(=O)OCC3C(F)F)nc1-2)C(N)=O
pIC50 (second compound 0.00316 µM): < 6.00
pIC50 (second compound 0.01 µM): < 6.00
pIC50 (second compound 0.0316 µM): < 6.00
pIC50 (second compound 0.1 µM): 6.27
pIC50 (second compound 0.316 µM): 6.72
pIC50 (second compound 1 µM): 7.53
viability, T/C (second compound 0.00316 µM, first compound 0.00316 µM): 92%
viability, T/C (second compound 0.00316 µM, first compound 0.01 µM): 103%
viability, T/C [1]: 98%
viability, T/C [2]: 95.6%
viability, T/C [3]: 95.2%
viability, T/C [4]: 93.1%
viability, T/C (second compound 0.01 µM, first compound 0.00316 µM): 89.4%
viability, T/C (second compound 0.01 µM, first compound 0.01 µM): 103%
viability, T/C [5]: 95.1%
viability, T/C [6]: 106%
viability, T/C [7]: 123%
viability, T/C [8]: 70.1%
viability, T/C (second compound 0.0316 µM, first compound 0.00316 µM): 104%
viability, T/C (second compound 0.0316 µM, first compound 0.01 µM): 96.7%
viability, T/C [9]: 94.2%
viability, T/C [10]: 97.3%
viability, T/C [11]: 102%
viability, T/C [12]: 53%
viability, T/C (second compound 0.1 µM, first compound 0.00316 µM): 91.2%
viability, T/C (second compound 0.1 µM, first compound 0.01 µM): 102%
viability, T/C [13]: 94.1%
viability, T/C [14]: 94.1%
viability, T/C [15]: 69%
viability, T/C [16]: 28.1%
viability, T/C (second compound 0.316 µM, first compound 0.00316 µM): 87.7%
viability, T/C (second compound 0.316 µM, first compound 0.01 µM): 77.5%
viability, T/C [17]: 77.8%
viability, T/C [18]: 69.7%
viability, T/C [19]: 35%
viability, T/C [20]: 23.4%
viability, T/C (second compound 1 µM, first compound 0.00316 µM): 76.9%
viability, T/C (second compound 1 µM, first compound 0.01 µM): 56.7%
viability, T/C [21]: 48.6%
viability, T/C [22]: 43%
viability, T/C [23]: 32.1%
viability, T/C [24]: 25%

Cn1ncc(Cl)c1-c1cc(C(=O)NC(CN)Cc2cccc(F)c2)sc1Cl (stereo unspecified) + CC(Nc1ccc2c(c1)OCCn1cc(N3C(=O)OCC3C(F)F)nc1-2)C(N)=O
pIC50 (second compound 0.00316 µM): 5.27
pIC50 (second compound 0.01 µM): 5.51
pIC50 (second compound 0.0316 µM): 5.59
pIC50 (second compound 0.1 µM): 5.74
pIC50 (second compound 0.316 µM): 5.95
pIC50 (second compound 1 µM): 6.71
viability, T/C [1]: 100%
viability, T/C [2]: 99%
viability, T/C [3]: 83.8%
viability, T/C [4]: 80.8%
viability, T/C [25]: 58.9%
viability, T/C [26]: 38.1%
viability, T/C [5]: 107%
viability, T/C [6]: 107%
viability, T/C [7]: 100%
viability, T/C [8]: 86.2%
viability, T/C [27]: 48.5%
viability, T/C [28]: 38.2%
viability, T/C [9]: 118%
viability, T/C [10]: 99.6%
viability, T/C [11]: 82.4%
viability, T/C [12]: 62%
viability, T/C [29]: 47.6%
viability, T/C [30]: 35.1%
viability, T/C [13]: 96.6%
viability, T/C [14]: 89.5%
viability, T/C [15]: 81.8%
viability, T/C [16]: 55.8%
viability, T/C [31]: 43.9%
viability, T/C [32]: 25.9%
viability, T/C [17]: 96%
viability, T/C [18]: 87.8%
viability, T/C [19]: 57.5%
viability, T/C [20]: 55.6%
viability, T/C [33]: 38.5%
viability, T/C [34]: 23.3%
viability, T/C [21]: 89.4%
viability, T/C [22]: 55.2%
viability, T/C [23]: 45.4%
viability, T/C [24]: 32.9%
viability, T/C [35]: 33%
viability, T/C [36]: 19.6%

Cn1nccc1Nc1nccc(-c2ccn(C(CO)c3ccc(Cl)c(F)c3)c(=O)c2)n1 (stereo unspecified) + CC(Nc1ccc2c(c1)OCCn1cc(N3C(=O)OCC3C(F)F)nc1-2)C(N)=O
pIC50 (second compound 0.00316 µM): < 5.00
pIC50 (second compound 0.01 µM): < 5.00
pIC50 (second compound 0.0316 µM): < 5.00
pIC50 (second compound 0.1 µM): < 5.00
pIC50 (second compound 0.316 µM): < 5.00
pIC50 (second compound 1 µM): < 5.00
viability, T/C [1]: 93.2%
viability, T/C [2]: 108%
viability, T/C [3]: 103%
viability, T/C [4]: 120%
viability, T/C [25]: 143%
viability, T/C [26]: 145%
viability, T/C [5]: 103%
viability, T/C [6]: 101%
viability, T/C [7]: 97.5%
viability, T/C [8]: 115%
viability, T/C [27]: 124%
viability, T/C [28]: 131%
viability, T/C [9]: 106%
viability, T/C [10]: 99.4%
viability, T/C [11]: 106%
viability, T/C [12]: 122%
viability, T/C [29]: 131%
viability, T/C [30]: 123%
viability, T/C [13]: 102%
viability, T/C [14]: 108%
viability, T/C [15]: 115%
viability, T/C [16]: 124%
viability, T/C [31]: 115%
viability, T/C [32]: 116%
viability, T/C [17]: 97.3%
viability, T/C [18]: 91.7%
viability, T/C [19]: 97.2%
viability, T/C [20]: 89.3%
viability, T/C [33]: 78.3%
viability, T/C [34]: 80.1%
viability, T/C [21]: 78.8%
viability, T/C [22]: 79.8%
viability, T/C [23]: 65%
viability, T/C [24]: 72%
viability, T/C [35]: 60.7%
viability, T/C [36]: 62.7%
